The values below come from ChEMBL document CHEMBL5154782, “Discovery of Potent PROTACs Targeting EGFR Mutants through the Optimization of Covalent EGFR Ligands” (J Med Chem, 2022).

SMILES strings stand for the structures.

For assay [1], the target named is T1, von Hippel-Lindau disease tumor suppressor/Epidermal growth factor receptor (Homo sapiens, UniProt P00533+P40337). Briefly: Protac activity at VHL/EGFR deletion19 mutant in human HCC827 cells assessed as induction of EGFR degradation under starvation condition. The assay is classed as cell-based.
T1 sequence (P00533 25-1210 limits assumed, stated change not applied): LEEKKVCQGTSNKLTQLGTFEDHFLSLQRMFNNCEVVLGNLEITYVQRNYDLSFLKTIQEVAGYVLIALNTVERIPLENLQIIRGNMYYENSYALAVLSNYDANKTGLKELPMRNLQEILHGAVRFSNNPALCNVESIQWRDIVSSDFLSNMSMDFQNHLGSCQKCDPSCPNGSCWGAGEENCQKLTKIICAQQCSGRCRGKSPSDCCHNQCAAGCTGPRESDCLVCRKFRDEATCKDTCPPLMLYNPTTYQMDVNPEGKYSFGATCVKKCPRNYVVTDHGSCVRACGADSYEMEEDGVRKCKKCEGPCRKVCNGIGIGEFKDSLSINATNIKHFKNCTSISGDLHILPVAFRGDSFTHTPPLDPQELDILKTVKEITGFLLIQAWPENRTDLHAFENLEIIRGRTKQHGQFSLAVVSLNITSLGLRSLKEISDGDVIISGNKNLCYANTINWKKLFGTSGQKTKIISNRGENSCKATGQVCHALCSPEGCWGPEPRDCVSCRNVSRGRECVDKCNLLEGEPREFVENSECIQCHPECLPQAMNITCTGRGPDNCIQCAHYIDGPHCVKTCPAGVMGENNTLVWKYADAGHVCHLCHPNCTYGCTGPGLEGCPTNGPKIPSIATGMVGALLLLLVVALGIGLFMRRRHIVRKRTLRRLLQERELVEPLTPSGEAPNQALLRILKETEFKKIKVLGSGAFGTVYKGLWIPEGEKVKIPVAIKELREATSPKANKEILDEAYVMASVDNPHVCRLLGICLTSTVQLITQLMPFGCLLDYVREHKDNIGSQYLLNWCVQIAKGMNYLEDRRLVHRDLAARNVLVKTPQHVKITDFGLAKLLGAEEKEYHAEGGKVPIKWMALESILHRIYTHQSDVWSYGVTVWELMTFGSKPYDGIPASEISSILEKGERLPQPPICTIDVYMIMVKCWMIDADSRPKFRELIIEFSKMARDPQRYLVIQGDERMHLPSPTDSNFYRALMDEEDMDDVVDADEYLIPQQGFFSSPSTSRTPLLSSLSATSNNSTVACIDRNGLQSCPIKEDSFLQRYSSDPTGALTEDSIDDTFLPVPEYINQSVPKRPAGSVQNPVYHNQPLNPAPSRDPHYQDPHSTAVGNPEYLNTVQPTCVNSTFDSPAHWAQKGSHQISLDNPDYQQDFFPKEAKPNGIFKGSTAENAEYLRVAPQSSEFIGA
T1 sequence (P40337 whole entry, stated change not applied): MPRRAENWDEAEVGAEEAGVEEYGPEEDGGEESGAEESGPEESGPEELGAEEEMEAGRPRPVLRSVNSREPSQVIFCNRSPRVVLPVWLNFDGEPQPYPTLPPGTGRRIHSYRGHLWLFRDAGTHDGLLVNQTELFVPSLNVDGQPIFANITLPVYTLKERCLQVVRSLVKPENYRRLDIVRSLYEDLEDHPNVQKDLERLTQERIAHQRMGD
Assay [2] has as its system PC-9. The experiment in a line: Antiproliferative activity against human PC-9 cells expressing EGFR deletion19/T790M/C797S mutant assessed as reduction on cell growth growth incubated for 72 hrs by MTT assay. Format: functional, cell-based. The settings on record: PC-9, 72 h. In general terms: Tetrazolium dyes change colour on reduction, which living cells bring about.

Assay [3] concerns BaF3. Briefly: Antiproliferative activity against mouse BaF3 cells expressing EGFR L858R/T790M/C797S mutant assessed as reduction on cell growth incubated for 72 hrs by MTT assay. Format: toxicity, cell-based. The settings on record: BaF3, 72 h.
In assay [4] the test system is NCI-H1975. The experiment in a line: Antiproliferative activity against human NCI-H1975 cells expressing EGFR L858R/T790M/C797S mutant assessed as reduction on cell growth incubated for 72 hrs by MTT assay. Format: functional, cell-based. To be noted: NCI-H1975, 72 h.
The test system of assay [5] is BaF3. Briefly: Antiproliferative activity against mouse BaF3 cells expressing EGFR deletion19/T790M/C797S mutant assessed as reduction on cell growth incubated for 72 hrs by MTT assay. Format: toxicity, cell-based. To be noted: BaF3, 72 h.
The target of assay [6] is von Hippel-Lindau disease tumor suppressor/Epidermal growth factor receptor (Homo sapiens, UniProt P00533+P40337, T790M/L858R). Briefly: Protac activity at VHL/EGFR L858R/T790M mutant in human NCI-H1975 cells assessed as induction of EGFR degradation. Format: cell-based.
von Hippel-Lindau disease tumor suppressor/Epidermal growth factor receptor (Homo sapiens, UniProt P00533+P40337, T790M/L858R), sequence (P00533 25-1210 T790M/L858R limits assumed, stated change not applied): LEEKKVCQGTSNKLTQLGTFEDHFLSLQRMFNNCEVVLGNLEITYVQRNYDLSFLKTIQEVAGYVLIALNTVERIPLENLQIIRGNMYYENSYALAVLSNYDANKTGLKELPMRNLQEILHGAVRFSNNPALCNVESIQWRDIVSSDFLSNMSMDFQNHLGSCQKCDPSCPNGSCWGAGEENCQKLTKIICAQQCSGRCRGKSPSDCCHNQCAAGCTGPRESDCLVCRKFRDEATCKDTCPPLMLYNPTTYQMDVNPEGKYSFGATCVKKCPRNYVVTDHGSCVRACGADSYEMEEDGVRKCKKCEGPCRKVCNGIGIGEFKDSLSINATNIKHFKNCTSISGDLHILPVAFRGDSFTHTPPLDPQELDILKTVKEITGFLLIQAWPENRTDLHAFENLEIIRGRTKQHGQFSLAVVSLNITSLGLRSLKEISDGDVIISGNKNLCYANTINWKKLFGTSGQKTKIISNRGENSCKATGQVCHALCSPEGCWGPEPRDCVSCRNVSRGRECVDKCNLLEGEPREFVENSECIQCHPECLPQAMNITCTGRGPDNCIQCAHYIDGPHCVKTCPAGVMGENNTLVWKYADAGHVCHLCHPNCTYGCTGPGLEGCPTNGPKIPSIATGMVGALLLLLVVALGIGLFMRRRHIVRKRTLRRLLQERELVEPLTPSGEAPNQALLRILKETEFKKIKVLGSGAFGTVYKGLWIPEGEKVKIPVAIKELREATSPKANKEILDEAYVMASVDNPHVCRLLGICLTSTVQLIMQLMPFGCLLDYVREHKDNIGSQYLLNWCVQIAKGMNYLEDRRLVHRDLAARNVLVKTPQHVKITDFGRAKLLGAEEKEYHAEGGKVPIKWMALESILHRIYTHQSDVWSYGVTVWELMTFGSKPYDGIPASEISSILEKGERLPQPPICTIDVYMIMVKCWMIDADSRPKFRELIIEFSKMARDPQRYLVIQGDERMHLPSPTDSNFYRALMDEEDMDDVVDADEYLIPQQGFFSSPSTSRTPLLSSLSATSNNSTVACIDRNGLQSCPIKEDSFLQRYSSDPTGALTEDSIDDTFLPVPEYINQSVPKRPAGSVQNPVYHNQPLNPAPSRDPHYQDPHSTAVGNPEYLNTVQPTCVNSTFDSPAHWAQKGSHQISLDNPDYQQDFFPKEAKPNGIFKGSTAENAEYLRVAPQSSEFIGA
von Hippel-Lindau disease tumor suppressor/Epidermal growth factor receptor (Homo sapiens, UniProt P00533+P40337, T790M/L858R), sequence (P40337 whole entry, stated change not applied): as the sequence (P40337 whole entry, stated change not applied) above
Assay [7] deals with T1, von Hippel-Lindau disease tumor suppressor/Epidermal growth factor receptor. Briefly: Protac activity at VHL/EGFR deletion19 mutant in human PC9 cells assessed as induction of EGFR degradation. The assay is classed as cell-based. To be noted: pc-9.
The subject of assay [8] is NCI-H1975. Briefly: Antiproliferative activity against human NCI-H1975 cells expressing EGFR L858R/T790M mutant assessed as inhibition of cell proliferation. The assay is classed as functional, cell-based.

As to `COc1cc2ncnc(Nc3ccc(F)c(Cl)c3)c2cc1OCCCN1CCN(C(=O)CCCCCCCCCC(=O)N[C@H](C(=O)N2C[C@H](O)C[C@H]2C(=O)NCc2ccc(-c3scnc3C)cc2)C(C)(C)C)CC1`, the DC50 in assay [1] worked out at 5 nM.

On to `COc1cc(N2CCC(N3CCN(C)CC3)CC2)c(C)cc1Nc1ncc(Br)c(Nc2ccc3nccnc3c2P(C)(C)=O)n1`, for which the IC50 amounted to 45 nM in assay [2], 21 nM in assay [3], 910 nM in assay [4] and 17 nM in assay [5].

`C=CC(=O)Nc1cc2c(Nc3ccc(F)c(Cl)c3)ncnc2cc1OCCCN1CCN(C(=O)CCCCCCNc2cccc3c2C(=O)N(C2CCC(=O)NC2=O)C3=O)CC1` (stereo not drawn): the results for the DC50 in assay [6] and in assay [7] were less than 30 nM and 100 nM, respectively. Also, the IC50 in assay [8] worked out at 26.5 nM.

Usually DC50 stands for the midpoint of the concentration-degradation curve. Broadly, the IC50 is the concentration needed to halve the response being measured.
